Tests used:
Type in all cases: biochemical
[1] = target: T1, SIRT6 (Homo sapiens, UniProt Q8N6T7); assay: Small molecule SIRT6 activator screen (H3K9ac peptide deacetylation, HPLC); settings: compound 100 μM; SIRT6 1 μM; H3K9ac peptide 20 μM; 0.5 mM NAD+
Method: Mastermix containing SIRT6, buffer, and H3K9ac peptide were distributed to wells using Microflex peristaltic dispenser (Beckman). Plates were spun and preheated to 37° C. before addition of NAD^+ using peristaltic dispenser. After 60 minutes reactions were quenched with 2% TFA final using peristaltic dispenser then sealed and spun again before in-house HPLC separation and quantification of substrate and product peptides. Reaction conditions were 1 μM SIRT6, 0.5 mM NAD^+, […] (4-16), 20 mM potassium phosphate pH 7.5, 10% DMSO, and either 10 or 100 μM compound determined by 10-fold dilution of stock library concentration.
All sirtuin deacylation assays were carried out at 37° C. in 20 mM potassium phosphate pH 7.5 with 0.5 mM NAD^+, 10% DMSO, and 20 μM H3K9ac or H3K9myr peptides, unless otherwise noted in legend, and quenched by the addition of 2% TFA final. Steady-state reactions were constrained to less than 20% substrate turnover to prevent product inhibition. A variety of times were required to monitor SIRT6 deacetylation (2-60 minutes) under this restraint given the ability to strongly activate catalysis. In these cases, specific activities were determined and either reported as is or as fold-activation of specific activity. […] Deacetylation reactions were analyzed using a gradient of 33-100% B (30% acetonitrile with 0.05% TFA) in 8 min at 1.6 mL min^−1. Demyristoylation reactions were analyzed using a gradient of 3 to 100% B (acetonitrile with 0.05% TFA) in 10 min at 1.6 mL min^−1. The product and substrate peaks were quantified and ratio of these allowed for quantification of product formation.

[2] = target: T1, SIRT6; assay: SIRT6 deacetylation of H3K9ac peptide, fold-activation versus activator concentration; settings: for EC50: H3K9ac peptide 20 μM, sigmoidal curve fit
Method: (1A) Compound libraries BML-2803, BML-2800, and an additional set of 178 molecules were screened at 100 μM for their ability to stimulate SIRT6 (1 μM) deacetylation of H3K9ac peptide (20 μM) in the presence of 0.5 mM NAD^+. SIRT6 activity was measured by HPLC quantification of H3K9ac and deacetylated product (inset) and fold activations relative to DMSO control were determined and compiled. (1B) Fold-activation of SIRT6 (1 μM) determined in the presence of either 0-400 μM CL4, 0-150 μM TTNPB, 0-100 μM Lysophosphatidic acid (LPA), or 0-200 μM linoleoylglycine (LGly). Maximum fold-activation and EC50 determined by sigmoidal curve fit. (1C) Steady-state kinetic analysis of SIRT6 (1 μM) deacetylation was conducted with 0-250 μM H3K9ac peptide in the presence of 100 μM CL4, 50 μM TTNPB, 50 μM LPA, or 50 μM LGly. Constants Km, H3K9ac and kcat were determined by fitting data to Michaelis-Menten equation. (1D) Fold-activations of SIRT1 (0.1 μM), SIRT2 (0.2 μM), SIRT3 (1 μM), SIRT5 (2 μM), and SIRT6 (1 μM) determined in the presence of CL4 (100 μM), TTNPB (50 μM), and LPA (50 μM) relative to DMSO control against 20 μM H3K9ac peptide and 0.5 mM NAD^+. Mean values reported with error bars representing standard deviation of at least three replicates.
All sirtuin deacylation assays were carried out at 37° C. in 20 mM potassium phosphate pH 7.5 with 0.5 mM NAD^+, 10% DMSO, and 20 μM H3K9ac or H3K9myr peptides, unless otherwise noted in legend, and quenched by the addition of 2% TFA final. Steady-state reactions were constrained to less than 20% substrate turnover to prevent product inhibition. A variety of times were required to monitor SIRT6 deacetylation (2-60 minutes) under this restraint given the ability to strongly activate catalysis. In these cases, specific activities were determined and either reported as is or as fold-activation of specific activity. Deacylation reactions were analyzed by reversed phase high-performance liquid chromatography on a Kinetex C18 column (100 Å, 100×4.6 mm, 2.6 μm, Phenomenex) by monitoring the formation of the deacylated product at 214 nm. Deacetylation reactions were analyzed using a gradient of 33-100% B (30% acetonitrile with 0.05% TFA) in 8 min at 1.6 mL min^−1. Demyristoylation reactions were analyzed using a gradient of 3 to 100% B (acetonitrile with 0.05% TFA) in 10 min at 1.6 mL min^−1. The product and substrate peaks were quantified and ratio of these allowed for quantification of product formation. […]

[3] = target: T1, SIRT6; assay: Histone deacetylation assay with acid extracted histones, H3K9ac immunoblot; settings: 50 μM compound; histones 75 μg/mL from SAHA-treated HEK293T cells; SIRT6 1 μM
Method: HEK293T cells were cultured in Dulbecco's Modified Eagle Medium supplemented with 10% fetal bovine serum. Cells were treated with 10 μM SAHA for 24 hours prior to harvest. Cells were trypsinized and pelleted prior to washing twice with ice-cold PBS. Cells were then resuspended in 800 μL ice-cold 10 mM HEPES pH 7.4, 10 mM KCl, 0.05% NP-40, and histone deacetylase and protease inhibitors (1 mM sodium butyrate, 4 μM trichostatin A, 100 μM phenylmethylsulfonyl fluoride, 10 μg/mL leupeptin, and 10 μg/mL aprotinin) for 20 minutes. After a 1,000×g 10 minute spin at 4° C. the pelleted nuclei were resuspended in 0.2 M HCl and incubated on ice for 20 minutes. Following 10 minute spin at 21,000×g at 4° C. the acid extracted supernatant was neutralized with 1 M Tris-HCl pH 8 prior to BCA protein concentration measurement. Histone deacetylation assays were ran with 75 μg/mL extracted histones, 1 μM SIRT6, 50 μM CL5, CL5D or 5% DMSO control, 0.5 mM NAD^+, in 20 mM potassium phosphate pH 7.5. Reactions ran at 37° C. prior to quench with SDS loading dye and 5 minute boil. 540 ng of nuclei acid extract following sirtuin reaction were loaded for 15% SDS-PAGE followed by transfer to nitrocellulose. Membrane was blocked with 1% milk before blotted with anti-H3K9ac (Active Motiff 39917) 1:3000 and imaged. […] Bands were quantified using Image Studio Lite (LiCor). […]

T1 sequence (Q8N6T7 whole entry): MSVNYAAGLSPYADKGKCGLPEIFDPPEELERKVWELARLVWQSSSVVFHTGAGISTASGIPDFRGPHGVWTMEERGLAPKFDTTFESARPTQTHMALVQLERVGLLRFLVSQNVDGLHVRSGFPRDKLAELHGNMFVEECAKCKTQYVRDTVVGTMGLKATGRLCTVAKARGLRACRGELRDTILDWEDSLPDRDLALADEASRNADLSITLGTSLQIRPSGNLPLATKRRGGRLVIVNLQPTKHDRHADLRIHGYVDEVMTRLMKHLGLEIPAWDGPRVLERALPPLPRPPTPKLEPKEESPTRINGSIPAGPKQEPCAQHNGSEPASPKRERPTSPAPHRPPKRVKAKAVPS

## CCCCCCCCCCCCCC(=O)O [myristic acid]
[1]
  F.A. (fold-activation of SIRT6 relative to DMSO control): 3.7 fold

## CCCCCCCC/C=C\C/C=C\C/C=C\CCCC(=O)O [Mead acid (20:3 n-9)]
[1]
  F.A. (fold-activation of SIRT6 relative to DMSO control): 16 fold

## O=C(O)c1ccc2c(c1)C(=O)N(c1ccc(NC(=O)c3ccccc3)cc1)C2=O [CL-5, 2-(4-benzamidophenyl)-1,3-dioxoisoindoline-5-carboxylic acid]
[2]; SIRT6 1 μM, H3K9ac 20 μM, 0.5 mM NAD+
  concentration required to stimulate 4-fold activation of SIRT6: >400 µM
[2]; concentrations up to 400 μM
  activation of SIRT6 (in words): no activation
[3]
  SIRT6 deacetylation at H3K9 of whole histone substrate (in words): not

## Eicosatrienoic acid (20:3 n-3)
[1]
  F.A. (fold-activation of SIRT6 relative to DMSO control): 17 fold

## CCCCC/C=C\C/C=C\C/C=C\C/C=C\CCCC(=O)O [Arachidonic acid (20:4 n-6)]
[1]
  F.A. (fold-activation of SIRT6 relative to DMSO control): 15 fold

## CCCCCCCC/C=C\CCCCCCCC(=O)OCC(O)COP(=O)(O)O (stereo not shown) [Lysophosphatidic acid, oleoyl-lysophosphatidic acid, reference compound]
[2]; SIRT6 1 μM, 0.5 mM NAD+
  EC50: 25 ± 1 µM

## CCCCCCCCCCCCCCC(F)C(=O)O (stereo not shown) [2-Fluoropalmitic acid]
[1]
  F.A. (fold-activation of SIRT6 relative to DMSO control): 25 fold

## C/C(=C\c1ccc(C(=O)O)cc1)c1ccc2c(c1)C(C)(C)CCC2(C)C [TTNPB, arotinoid acid, reference compound]
[2]; SIRT6 1 μM, 0.5 mM NAD+
  EC50: 53 ± 3 µM

From patent US12390447B2, “Sirtuin 6 protein deacylase (SIRT6) activators” (Wisconsin Alumni Research Foundation, priority 2019, dated 2025)
